Measurements as given in patent US20210283056A1, “COMPOSITIONS FOR THERAPEUTICS PRESCREENING” (BARCODE DIAGNOSTICS LTD., priority 2018, published 2021).
Like-named read-outs stand apart in the source and are kept apart here.

How the values were obtained:
Cells growing in culture = assay: Barcode quantification by Real Time PCR, dead vs. live cells; assay type: cell-based
Experimental: Cells growing in culture were treated with the liposome mixes and 48 hours after exposure the cell were subjected to viability assay. Dead cells from each study group (in triplicates) were first pelleted by centrifugation of supernatant and kept at −20 C until further analysis. Fresh medium supplemented with 10% Presto Blue Reagent (ThermoFisher Scientific) was added to cells and incubated at 37 C for about 90 minutes. 100 ul of each well was transferred to a black 96 wells plate and Fluorescence was recorded ([…]). Viability was calculated as Fluorescence of each sample relative to fluorescence of non-treated cells. Both mixes killed a similar amount of cells. Immediately following the viability assay, adherent cells were detached by addition of trypsin to the wells. Barcode analysis by Real Time PCR was performed as follows. The different barcodes were analyzed using a ThermoFisher Scientific Quantstudiol PCR System. The assay was run with TaqMan Fast Advanced master mix (ThermoFisher Scientific), primers (IDT) and a barcode specific probe labeled on the 5′ end with fluorescent FAM dye and on its 3′ end with a nonfluorescent quencher linked to a Minor Groove Binder (MGB) (ThermoFisher Scientific). […] After preparation of all dilutions, Real Time PCR was used to validate the standard curve. A reaction was run for all barcodes together. Reaction settings were as follow: 2 μL of sample was run in a Real Time Quantstudiol PCR instrument, using fast template protocol. Each sample was run in duplicate. Each barcode tested was compared to a standard curve run on the same plate. Each barcode reaction comprised at least 4 NTCs. In the Set Up, target (barcode tested), task (sample=Unknown/Standard/NTC), name and biological group were assigned to each sample. […] Analysis calculated average amount of barcode copies between replicate samples. This quantity was obtained for 2 μl of sample (volume of sample in RT-PCR reaction) and was adjusted to the final volume of the sample. The ratio of each barcode found in dead vs. live cells was calculated.

[1] = system: triple negative breast cancer tumors; assay: Barcode analysis in live and dead tumor cells after injection of liposome mixes; assay type: in vivo, BALB/c female mice; settings: 5%
Text: FIGS. 1A-D: Detection of barcodes from liposome mixes with equal relative drug concentrations. […] Potency of the drugs was defined as the ratio of the amount of a barcode in dead cells to the amount of that barcode in live cells. (1D) A bar chart showing fluorescence from dead cells after treatment with two mixes of liposomes.
Each drug has its own specific effective therapeutic dose (ETD), and in order to test efficacy it is reasonable that each liposome mix (a mix of all three types of liposomes to be injected together) should have the same relative amount of each drug. That is, in order to determine an ideal dose, batches of mixed liposomes were generated in which all three drugs were present in a concentration that was either 5%, 1% or 0.1% of the effective therapeutic dose. Table 2 provides the amounts (in ul) of each liposome batch that were added to the mix in order to provide each total dose.
Cell from a triple negative breast cancer tumor were transplanted to the fat pad of BALB/c female mice and allowed to grow to form tumors in the mice. The mice were separated into 3 groups and then each group was injected with the 5%, 1% or 0.1% liposome mixes. 48 hours post injection the tumors were excised, and live/dead cell analysis was performed by FACS, followed by barcode analysis in live and dead cells separately.

[2] = system: 4T1 derived cancers and metastases; settings: cited from earlier work; for Effect on tumor growth: Kiew et al., 2012
[3] = first batch of liposomes (equal liposome number)

Structure (SMILES) | Effective at killing the cells (Cells growing in culture; [3]) | Effectiveness relative to the other two drugs ([1]; 1% or 0.1% mixes, patent regards it as likely artifact) | Potency (barcode in dead cells to live cells) ([1]; 1% or 0.1% of ETD liposome mixes, 48 hours post injection) | Effect on tumor growth ([2]; first couple of days of treatment) | Effect on tumor growth ([2]; later time points) | Sensitivity of 4T1 derived cancers and metastases ([2]; reported) | Effective at killing the cells (Cells growing in culture; second batch of liposomes (equal relative drug concentration)) | Resistance of 4T1 cells ([2]; reported)
Nc1ccn([C@@H]2O[C@H](CO)[C@@H](O)C2(F)F)c(=O)n1 [Gemcitabine] | effective | > 10 fold | most effective treatment | retards tumor growth | not be effective | – | – | –
N.N.[Cl][Pt][Cl] [cisplatin] | – | – | – | – | – | highly sensitive | – | –
COc1cccc2c1C(=O)c1c(O)c3c(c(O)c1C2=O)C[C@@](O)(C(=O)CO)C[C@@H]3O[C@H]1C[C@H](N)[C@H](O)[C@H](C)O1 [doxorubicin] | effective | – | – | – | – | less so | effective | become resistant
